Where a name gives a salt, the structure may show the parent alone.
Columns and labels:
NK1 = NK1 (Homo sapiens, UniProt P25103); assay: Signal transduction (ST), intracellular Ca++ (FLIPR), functional NK1 antagonistic activity; assay type: cell-based; conditions: antagonist, read-out: NK1 pIC50 (converted)
Summary of the method: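 Confluent cells were loaded with 2 μM Fluo3 for 1 h at 37° C, then washed into Krebs buffer pH 7.4 with 1.25 mM CaCl2 and 2.5 mM probenecid. Antagonists were preincubated 20 min at RT before agonist addition. Peak Ca++ transients were read by FLIPR, with EC50 or IC50 from sigmoidal non-linear regression.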

NK2 = biological target: T1, NK2 (Homo sapiens, UniProt P21452); assay: Signal transduction (ST), intracellular Ca++ (FLIPR), NK2; assay type: cell-based; conditions: antagonist, read-out: NK2 pIC50 (converted)
T1 sequence (P21452 1-398): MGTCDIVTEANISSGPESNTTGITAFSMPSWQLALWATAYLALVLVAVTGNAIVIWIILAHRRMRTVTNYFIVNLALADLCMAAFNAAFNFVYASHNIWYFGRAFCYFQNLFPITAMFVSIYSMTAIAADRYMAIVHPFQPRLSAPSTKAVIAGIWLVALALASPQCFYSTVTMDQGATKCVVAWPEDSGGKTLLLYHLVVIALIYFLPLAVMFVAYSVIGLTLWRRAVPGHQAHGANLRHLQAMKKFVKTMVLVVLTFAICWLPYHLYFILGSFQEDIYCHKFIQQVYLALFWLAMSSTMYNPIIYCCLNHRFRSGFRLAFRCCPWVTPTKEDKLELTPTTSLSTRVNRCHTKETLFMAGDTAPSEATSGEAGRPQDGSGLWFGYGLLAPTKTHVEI

NK3 = biological target: T2, NK3 (Homo sapiens, UniProt P29371); assay: Signal transduction (ST), intracellular Ca++ (FLIPR), NK3; assay type: cell-based; conditions: antagonist, read-out: NK3 pIC50 (converted)
T2 sequence (P29371 1-465): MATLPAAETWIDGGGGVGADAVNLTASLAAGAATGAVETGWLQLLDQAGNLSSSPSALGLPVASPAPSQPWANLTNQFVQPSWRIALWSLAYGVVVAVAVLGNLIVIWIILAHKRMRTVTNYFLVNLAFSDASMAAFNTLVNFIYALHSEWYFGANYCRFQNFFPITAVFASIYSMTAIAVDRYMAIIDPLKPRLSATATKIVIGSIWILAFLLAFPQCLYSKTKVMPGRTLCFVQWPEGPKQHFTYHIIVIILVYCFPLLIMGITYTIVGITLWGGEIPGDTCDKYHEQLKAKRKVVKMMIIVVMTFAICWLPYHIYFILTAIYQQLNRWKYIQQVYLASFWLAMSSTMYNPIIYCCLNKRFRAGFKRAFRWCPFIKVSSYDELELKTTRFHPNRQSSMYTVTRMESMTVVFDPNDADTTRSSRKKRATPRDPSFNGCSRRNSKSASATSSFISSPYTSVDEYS

Sequence of NK1 (P25103 whole entry): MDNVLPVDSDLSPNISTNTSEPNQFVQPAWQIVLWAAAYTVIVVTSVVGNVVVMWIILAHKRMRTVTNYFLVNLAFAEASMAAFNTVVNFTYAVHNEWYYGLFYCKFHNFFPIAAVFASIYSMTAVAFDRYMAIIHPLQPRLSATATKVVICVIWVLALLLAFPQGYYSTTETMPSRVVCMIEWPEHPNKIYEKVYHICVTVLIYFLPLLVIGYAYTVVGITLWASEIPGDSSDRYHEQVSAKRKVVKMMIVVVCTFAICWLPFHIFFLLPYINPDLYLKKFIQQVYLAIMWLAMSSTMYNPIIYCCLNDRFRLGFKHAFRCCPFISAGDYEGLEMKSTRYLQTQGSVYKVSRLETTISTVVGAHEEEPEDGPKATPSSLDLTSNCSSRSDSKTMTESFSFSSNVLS

| SMILES | melting point [°C] | IC50 (NK1) [nM] | IC50 (NK2) [nM] | IC50 (NK3) [nM] |
| --- | --- | --- | --- | --- |
| O=C(c1cc(C(F)(F)F)cc(C(F)(F)F)c1)N1CCC(N2CCC3(CCN(Cc4ccccc4)CC3)CC2)CC1Cc1ccccc1 (stereo not shown) (as salt: hydrochloric acid salt) [Compound 5] | 183 |  |  |  |
| O=C(c1cc(C(F)(F)F)cc(C(F)(F)F)c1)N1CCC(N2CCC3(CC2)CCN(S(=O)(=O)c2cccs2)CC3)CC1Cc1ccccc1 (stereo not shown) (as salt: oxalate) [Compound 92] | 132 |  |  |  |
| O=C(C1CC1)N1CCC2(CC1)CCN(C1CCN(C(=O)c3cc(C(F)(F)F)cc(C(F)(F)F)c3)C(Cc3ccccc3)C1)CC2 (stereo not shown) [Compound 3] | 160 | 37.2 | 1100 | 1510 |
| CC(C)(C)OC(=O)N1CCC2(CC1)CCN(C1CCN(C(=O)c3cc(C(F)(F)F)cc(C(F)(F)F)c3)C(Cc3ccc(Cl)c(Cl)c3)C1)CC2 (stereo not shown) [Compound 130] | 80 |  |  |  |
| O=C(C1CCOC1)N1CCC2(CC1)CCN(C(=O)[C@H]1CCN(C(=O)c3cc(C(F)(F)F)cc(C(F)(F)F)c3)[C@H](Cc3ccccc3)C1)CC2 (stereo partly shown) [Compound 187] |  | 20 | 7080 | > 10000 |
| CC(C)(C)OC(=O)N1CCCC1C(=O)N1CCC2(CC1)CCN(C(=O)[C@H]1CCN(C(=O)c3cc(C(F)(F)F)cc(C(F)(F)F)c3)[C@H](Cc3ccccc3)C1)CC2 (stereo partly shown) [Compound 188] |  | 15.1 | 5500 | 3720 |
| O=C(c1ccsc1)N1CCC2(CC1)CCN(C(=O)[C@H]1CCN(C(=O)c3cc(C(F)(F)F)cc(C(F)(F)F)c3)[C@H](Cc3ccccc3)C1)CC2 [Compound 189] |  | 28.8 | 6760 | > 10000 |
| Cc1nnsc1C(=O)N1CCC2(CC1)CCN(C(=O)[C@H]1CCN(C(=O)c3cc(C(F)(F)F)cc(C(F)(F)F)c3)[C@H](Cc3ccccc3)C1)CC2 [Compound 190] |  | 6.17 | 1620 | 3550 |
| CC(C)CN1CCC2(CCN([C@@H]3CCN(C(=O)c4cc(C(F)(F)F)cc(C(F)(F)F)c4)[C@H](Cc4ccccc4)C3)CC2)CC1=O [Compound 193] |  | 240 | 2510 | 5750 |
| O=C1CC2(CCN1CC1CC1)CCN(C1CCN(C(=O)c3cc(C(F)(F)F)cc(C(F)(F)F)c3)C(Cc3ccccc3)C1)CC2 (stereo not shown) [Compound 195] |  | 53.7 | ~1410 | 1450 |
| O=C1CC2(CCN1CC1CCC1)CCN([C@@H]1CCN(C(=O)c3cc(C(F)(F)F)cc(C(F)(F)F)c3)[C@H](Cc3ccccc3)C1)CC2 [Compound 197] |  | 191 | 2880 | 6460 |
| O=C1CC2(CCN1Cc1ccoc1)CCN([C@@H]1CCN(C(=O)c3cc(C(F)(F)F)cc(C(F)(F)F)c3)[C@H](Cc3ccccc3)C1)CC2 [Compound 198] |  | 339 | 4790 | > 10000 |
| O=C1CC2(CCN1Cc1ccoc1)CCN([C@H]1CCN(C(=O)c3cc(C(F)(F)F)cc(C(F)(F)F)c3)[C@H](Cc3ccccc3)C1)CC2 [Compound 199] |  | 37.2 | 2750 | 851 |
| Cc1noc(C)c1CN1CCC2(CCN([C@H]3CCN(C(=O)c4cc(C(F)(F)F)cc(C(F)(F)F)c4)[C@H](Cc4ccccc4)C3)CC2)CC1=O [Compound 200] |  | 23.4 | 1450 | 6920 |
| Cc1noc(C)c1CN1CCC2(CCN([C@@H]3CCN(C(=O)c4cc(C(F)(F)F)cc(C(F)(F)F)c4)[C@H](Cc4ccccc4)C3)CC2)CC1=O [Compound 201] |  | 219 | 2820 | ~10000 |
| O=C1CC2(CCN1Cc1ccccc1F)CCN([C@H]1CCN(C(=O)c3cc(C(F)(F)F)cc(C(F)(F)F)c3)[C@H](Cc3ccccc3)C1)CC2 [Compound 202] |  | 245 | 4570 | 7240 |
| O=C1CC2(CCN1Cc1ccccc1F)CCN([C@@H]1CCN(C(=O)c3cc(C(F)(F)F)cc(C(F)(F)F)c3)[C@H](Cc3ccccc3)C1)CC2 [Compound 203] |  | 661 | 3390 | > 10000 |
| CC(C)(C)C(=O)N1CCCC2(CCCN([C@H]3CCN(C(=O)c4cc(C(F)(F)F)cc(C(F)(F)F)c4)[C@H](Cc4ccccc4)C3)C2)C1 (stereo partly shown) [Compound 207] |  | 589 | 1910 | 5750 |
| O=C(C1CC1)N1CCCC2(CCCN([C@H]3CCN(C(=O)c4cc(C(F)(F)F)cc(C(F)(F)F)c4)[C@H](Cc4ccccc4)C3)C2)C1 (stereo partly shown) [Compound 208] |  | 347 | 2630 | 4270 |
| O=C(c1ccoc1)N1CCCC2(CCCN(C3CCN(C(=O)c4cc(C(F)(F)F)cc(C(F)(F)F)c4)C(Cc4ccccc4)C3)C2)C1 (stereo not shown) [Compound 212] |  | 631 | 3550 | 3800 |
